Mutagenic call data for four compounds are collected here from PubChem BioAssay AID1259407 (Chemical Carcinogenesis Research Information System (CCRIS), 2018).

Calls of active or inactive are those of the source. No rule for the calls is given here.

This data set relates to CCRIS mutagenicity, Ames/micronucleus/aberration tests. In words: CCRIS mutagenicity studies.
Setting [1] is: Test System: AMES SALMONELLA TYPHIMURIUM, Strain/Indicator: TA100, Metabolic Activation: NONE, Method: STANDARD PLATE.
The mark [2] stands for this setting: Test System: AMES SALMONELLA TYPHIMURIUM, Strain/Indicator: TA100, Metabolic Activation: RAT, LIVER, S-9, AROCLOR 1254, Method: STANDARD PLATE.
Setting [3] is: Test System: AMES SALMONELLA TYPHIMURIUM, Strain/Indicator: TA98, Metabolic Activation: NONE, Method: STANDARD PLATE.
[4] abbreviates: Test System: AMES SALMONELLA TYPHIMURIUM, Strain/Indicator: TA98, Metabolic Activation: RAT, LIVER, S-9, AROCLOR 1254, Method: STANDARD PLATE.
Where [5] appears, read: Test System: AMES SALMONELLA TYPHIMURIUM, Strain/Indicator: TA102, Metabolic Activation: NONE, Method: STANDARD PLATE.
Where [6] appears, read: Test System: AMES SALMONELLA TYPHIMURIUM, Strain/Indicator: TA102, Metabolic Activation: RAT, LIVER, S-9, AROCLOR 1254, Method: STANDARD PLATE.

For `CCC[N+](=O)[O-]`, the mutagenic call is “inactive; negative” (Test System: AMES SALMONELLA TYPHIMURIUM, Strain/Indicator: TA98, Metabolic Activation: RAT LIVER S-9, PHENOBARBITAL AND BETA-NAPHTHOFLAVONE, Method: PREINCUBATION); “inactive; negative” (Test System: AMES SALMONELLA TYPHIMURIUM, Strain/Indicator: TA98, Metabolic Activation: RAT, LIVER, S-9, AROCLOR, Method: PREINCUBATION); “inactive; negative” (Test System: AMES SALMONELLA TYPHIMURIUM, Strain/Indicator: TA98, Metabolic Activation: RAT, LIVER, S-9, CLOPHEN A-50, Method: PREINCUBATION); “inactive; negative” (Test System: AMES SALMONELLA TYPHIMURIUM, Strain/Indicator: TA98, Metabolic Activation: RAT, LIVER, S-9, KANECHLOR 500, Method: PREINCUBATION); “inactive; negative” (Test System: AMES SALMONELLA TYPHIMURIUM, Strain/Indicator: TA100, Metabolic Activation: RAT LIVER S-9, PHENOBARBITAL AND BETA-NAPHTHOFLAVONE, Method: PREINCUBATION); “inactive; negative” (Test System: AMES SALMONELLA TYPHIMURIUM, Strain/Indicator: TA100, Metabolic Activation: RAT, LIVER, S-9, AROCLOR, Method: PREINCUBATION). Further, the mutagenic call by setting is: (Test System: AMES SALMONELLA TYPHIMURIUM, Strain/Indicator: TA100, Metabolic Activation: RAT, LIVER, S-9, CLOPHEN A-50, Method: PREINCUBATION) “inactive; negative”; (Test System: AMES SALMONELLA TYPHIMURIUM, Strain/Indicator: TA100, Metabolic Activation: RAT, LIVER, S-9, KANECHLOR 500, Method: PREINCUBATION) “inactive; negative”; (Test System: AMES SALMONELLA TYPHIMURIUM, Strain/Indicator: TA102, Metabolic Activation: NONE, Method: PREINCUBATION) “inactive; negative”; (Test System: AMES SALMONELLA TYPHIMURIUM, Strain/Indicator: TA102, Metabolic Activation: RAT LIVER S-9, PHENOBARBITAL AND BETA-NAPHTHOFLAVONE, Method: PREINCUBATION) “inactive; negative”; (Test System: AMES SALMONELLA TYPHIMURIUM, Strain/Indicator: TA102, Metabolic Activation: RAT, LIVER, S-9, AROCLOR, Method: PREINCUBATION) “inactive; negative”; (Test System: AMES SALMONELLA TYPHIMURIUM, Strain/Indicator: TA104, Metabolic Activation: NONE, Method: PREINCUBATION) “inactive; negative”. Also, the mutagenic call is “inactive; negative” (Test System: AMES SALMONELLA TYPHIMURIUM, Strain/Indicator: TA104, Metabolic Activation: RAT LIVER S-9, PHENOBARBITAL AND BETA-NAPHTHOFLAVONE, Method: PREINCUBATION); “inactive; negative” (Test System: AMES SALMONELLA TYPHIMURIUM, Strain/Indicator: TA1535, Metabolic Activation: NONE, Method: PREINCUBATION); “inactive; negative” (Test System: AMES SALMONELLA TYPHIMURIUM, Strain/Indicator: TA1535, Metabolic Activation: RAT LIVER S-9, PHENOBARBITAL AND BETA-NAPHTHOFLAVONE, Method: PREINCUBATION); “inactive; negative” (Test System: AMES SALMONELLA TYPHIMURIUM, Strain/Indicator: TA1537, Metabolic Activation: NONE, Method: PREINCUBATION); “inactive; negative” (Test System: AMES SALMONELLA TYPHIMURIUM, Strain/Indicator: TA1537, Metabolic Activation: RAT LIVER S-9, PHENOBARBITAL AND BETA-NAPHTHOFLAVONE, Method: PREINCUBATION); “active; positive” (Test System: CHINESE HAMSTER V-79, Strain/Indicator: V-79/6-THIOGUANINE, Metabolic Activation: NONE, Method: STANDARD PLATE). The mutagenic call is “inactive; negative” (Test System: E. COLI, Strain/Indicator: WP2 UVRA (PKM101), Metabolic Activation: NONE, Method: PREINCUBATION); “inactive; negative” (Test System: E.COLI, Strain/Indicator: WP2UVRA/PKM101, Metabolic Activation: NONE, Method: PREINCUBATION); “inactive; negative” (Test System: E.COLI, Strain/Indicator: WP2UVRA/PKM101, Metabolic Activation: RAT LIVER S-9, PHENOBARBITAL AND BETA-NAPHTHOFLAVONE, Method: PREINCUBATION); “inactive; negative” (Test System: E.COLI, Strain/Indicator: WP2UVRA, Metabolic Activation: NONE, Method: PREINCUBATION); “inactive; negative” (Test System: E.COLI, Strain/Indicator: WP2UVRA, Metabolic Activation: RAT LIVER S-9, PHENOBARBITAL AND BETA-NAPHTHOFLAVONE, Method: PREINCUBATION); “inactive; negative” (Test System: UDS RAT HEPATOCYTES, Strain/Indicator: THY INCORP, Metabolic Activation: NONE). Further, the mutagenic call (Test System: UDS RODENT HEPATOCYTES, Strain/Indicator: THY INCORP (NON-S-PHASE), Metabolic Activation: NONE, Method: PREINCUBATION) is “inactive; negative”.
Consider `ClC(Cl)=C(Cl)C(Cl)=C(Cl)Cl`, for which the mutagenic call was “inactive; negative” (End Point: IN VITRO CHROMOSOMAL ABERRATIONS, Test System: CHINESE HAMSTER OVARY CELLS, Metabolic Activation: NONE); “inactive; negative” (End Point: IN VITRO CHROMOSOMAL ABERRATIONS, Test System: CHINESE HAMSTER OVARY CELLS, Metabolic Activation: RAT, LIVER, S-9, AROCLOR 1254); “active; positive (structural changes)” (End Point: IN VITRO CHROMOSOMAL ABERRATIONS, Test System: CHL/IU CELLS, Metabolic Activation: NONE); “active; positive” (End Point: IN VITRO MICRONUCLEUS, Test System: CHL/IU CELLS, Metabolic Activation: NONE); “inactive; negative” (Test System: AMES SALMONELLA TYPHIMURIUM, Strain/Indicator: TA100, Metabolic Activation: NONE, Method: PREINCUBATION); “active; positive” under setting [1]. The mutagenic call reads like this: (Test System: AMES SALMONELLA TYPHIMURIUM, Strain/Indicator: TA100, Metabolic Activation: RAT, LIVER, MICROSOMES AND GLUTATHIONE, Method: PREINCUBATION) “active; positive”; (Test System: AMES SALMONELLA TYPHIMURIUM, Strain/Indicator: TA100, Metabolic Activation: RAT, LIVER, S-9, AROCLOR 1254 (30%), Method: PREINCUBATION) “active; positive”; under setting [2], “active; positive”.
Take `Cc1nc2c(c3[nH]c4ccccc4c13)C(=O)C(N1CCN(C)CC1)=CC2=O`: the mutagenic call runs as follows: (Test System: AMES SALMONELLA TYPHIMURIUM, Strain/Indicator: TA97, Metabolic Activation: NONE, Method: STANDARD PLATE) “inactive; negative”; (Test System: AMES SALMONELLA TYPHIMURIUM, Strain/Indicator: TA97, Metabolic Activation: RAT, LIVER, S-9, AROCLOR 1254, Method: STANDARD PLATE) “inactive; negative”; under setting [3], “inactive; negative”; under setting [4], “inactive; negative”; under setting [1], “active; positive”; under setting [2], “inactive; negative”. For the same compound, the mutagenic call was “inactive; negative” under setting [5] and “inactive; negative” under setting [6].
For `CNc1ccc(NCCO)c2c1C(=O)c1ccccc1C2=O`, the mutagenic call was “inactive; negative” under setting [3]; “active; positive” under setting [4]; “inactive; negative” under setting [1]; “inactive; negative” under setting [2]; “inactive; negative” under setting [5]; “active; positive” under setting [6]. For the same compound, the mutagenic call is “inactive; negative” (Test System: AMES SALMONELLA TYPHIMURIUM, Strain/Indicator: TA104, Metabolic Activation: NONE, Method: STANDARD PLATE); “inactive; negative” (Test System: AMES SALMONELLA TYPHIMURIUM, Strain/Indicator: TA1537, Metabolic Activation: NONE, Method: STANDARD PLATE); “active; positive” (Test System: AMES SALMONELLA TYPHIMURIUM, Strain/Indicator: TA1537, Metabolic Activation: RAT, LIVER, S-9, AROCLOR 1254, Method: STANDARD PLATE); “inactive; negative” (Test System: AMES SALMONELLA TYPHIMURIUM, Strain/Indicator: TA1538, Metabolic Activation: NONE, Method: STANDARD PLATE); “active; positive” (Test System: MOUSE LYMPHOMA, Strain/Indicator: L5178Y (TK+/TK-), Metabolic Activation: NONE, Method: SUSPENSION PLATE); “active; positive” (Test System: MOUSE LYMPHOMA, Strain/Indicator: L5178Y (TK+/TK-), Metabolic Activation: NONE, Method: SUSPENSION/PLATE). Also, the mutagenic call (Test System: MOUSE LYMPHOMA, Strain/Indicator: L5178Y (TK+/TK-), Metabolic Activation: RAT, LIVER, S-9, AROCLOR 1254, Method: SUSPENSION PLATE) was “active; positive”.
